In patent US7618960B2, “Morpholine type cinnamide compound” (Eisai R&D Management Co., Ltd., priority 2005, dated 2009):

What follows are compounds tested on Aβ42 production (assay: Quantification of Aβ peptide in culture of neurons from rat fetus brain (Aβ ELISA)). Settings: Neuron, 72 h; rat primary neuronal culture (cerebral cortex, embryonic day 18 Wistar rats); medium collected three days after addition of compound; Aβx-42 ELISA; read-out: Activity for reducing Aβ42 production IC50.
Type: cell-based
Description: Quantification of Aβ Peptide in Culture of Neurons from Rat Fetus Brain
(1) Rat Primary Neuronal Culture
Primary neuronal cultures were prepared from the cerebral cortex of embryonic day 18 Wistar rats (Charles River Japan, Yokohama, Japan). Specifically, the embryos were aseptically removed from pregnant rats under ether anesthesia. The brain was isolated from the embryo and immersed in an ice-cold L-15 medium (Invitrogen Corp. Cat #11415-064, Carlsbad, Calif., USA, or SIGMA L1518, for example). The cerebral cortex was collected from the isolated brain under a stereoscopic microscope. The cerebral cortex fragments collected were enzymatically treated in an enzyme solution containing 0.25% trypsin (Invitrogen Corp. Cat #15050-065, Carlsbad, Calif., USA) and 0.01% DNase (Sigma D5025, St. Louis, Mo., USA) at 37° C. for 30 minutes to disperse the cells. Here, the enzymatic reaction was stopped by adding inactivated horse serum to the solution. The enzymatically treated solution was centrifuged at 1,500 rpm for five minutes to remove the supernatant. 5 to 10 ml of a medium was added to the resulting cell mass. Neurobasal medium (Invitrogen Corp. Cat #21103-049, Carlsbad, Calif., USA) supplemented with 2% B27 supplement (Invitrogen Corp. Cat #17504-044, Carlsbad, Calif., USA), 25 μM 2-mercaptoethanol (2-ME, WAKO Cat #139-06861, Osaka, Japan), 0.5 mM L-glutamine (Invitrogen Corp. Cat #25030-081, Carlsbad, Calif., USA), and Antibiotics-Antimycotics (Invitrogen Corp. Cat #15240-062, Carlsbad, Calif., USA) was used as the medium (Neurobasal/B27/2-ME). However, the above Neurobasal medium not supplemented with 2-ME (Neurobasal/B27) was used for the assay. The cells were redispersed by mild pipetting of the cell mass to which the medium was added. The cell dispersion was filtered through a 40-μm nylon mesh (Cell Strainer, Cat #35-2340, Becton Dickinson Labware, Franklin Lakes, N.J., USA) to remove the remaining cell mass, and thus a neuronal cell suspension was obtained. The neuronal cell suspension was diluted with the medium and then plated in a volume of 100 μl/well at an initial cell density of 5×10^5 cells/cm^2 in a 96-well polystyrene culture plate pre-coated with poly-L or D-lysine (Falcon Cat #35-3075, Becton Dickinson Labware, Franklin Lakes, N.J., USA coated with poly-L-lysine using the method shown below, or BIOCOAT™ cell environments Poly-D-lysine cell ware 96-well plate, Cat #35-6461, Becton Dickinson Labware, Franklin Lakes, N.J., USA). Poly-L-lysine coating was carried out as follows. 100 μg/ml of a poly-L-lysine (SIGMA P2636, St. Louis, Mo., USA) solution was aseptically prepared with a 0.15 M borate buffer (pH 8.5). 100 μl/well of the solution was added to the 96-well polystyrene culture plate and incubated at room temperature for one or more hours or at 4° C. overnight or longer. The coated 96-well polystyrene culture plate was washed with sterile water four or more times, and then dried or rinsed with, for example, sterile PBS or medium, and used for cell plating. The plated cells were cultured in the culture plate at 37° C. in 5% […]-95% air for one day. Then, the total amount of the medium was replaced with a fresh Neurobasal™/B27/2-ME medium, and then the cells were cultured for further three days.
The drug was added to the culture plate on Day 4 of culture as follows. The total amount of the medium was removed from the wells, and 180 μl/well of Neurobasal medium not containing 2-ME and containing 2% B-27 (Neurobasal/B27) was added thereto. A solution of the test compound in dimethyl sulfoxide (hereinafter abbreviated as DMSO) was diluted with Neurobasal/B27 so that the initial concentration was at 10-fold of the final concentration. 20 μl/well of the dilution was added to and sufficiently mixed with the medium. The final DMSO concentration was 1% or less. Only DMSO was added to the control group.
The cells were cultured for three days after addition of the compound, and the total amount of the medium was collected. […]

Structure (SMILES) | IC50 [nM]
COc1cc(/C=C2\O[C@@H](C)CN([C@H](c3cc(F)c(F)c(F)c3)[C@@H](C)O)C2=O)ccc1-n1cnc(C)c1 [Example 26, (Z)-(S)-4-[(1R,2R)-2-hydroxy-1-(3,4,5-trifluorophenyl)propyl]-2-[1-[3-methoxy-4-(4-methyl-1H-imidazol-1-yl)phenyl]methylidene]-6-methylmorpholin-3-one] | 6
COc1cc(/C=C2\OC(C)(C)CN([C@H](c3cc(F)c(F)c(F)c3)[C@@H](C)O)C2=O)ccc1-n1cnc(C)c1 [Example 27, (Z)-4-[(1R,2R)-2-hydroxy-1-(3,4,5-trifluorophenyl)propyl]-2-[1-[3-methoxy-4-(4-methyl-1H-imidazol-1-yl)phenyl]methylidene]-6,6-dimethylmorpholin-3-one] | 5
COc1cc(/C=C2\OC(C)(C)CN([C@@H](CO)c3ccc(F)cc3)C2=O)ccc1-n1cnc(C)c1 [Example 28, (Z)-4-[(R)-1-(4-fluorophenyl)-2-hydroxyethyl]-2-[1-[3-methoxy-4-(4-methyl-1H-imidazol-1-yl)phenyl]methylidene]-6,6-dimethylmorpholin-3-one] | 16
COc1cc(/C=C2\O[C@H](C)CN([C@H](c3cc(F)c(F)c(F)c3)[C@@H](C)O)C2=O)ccc1-n1cnc(C)c1 [Example 29, (Z)-(6R)-4-[(1R,2R)-2-hydroxy-1-(3,4,5-trifluorophenyl)propyl]-2-[1-[3-methoxy-4-(4-methyl-1H-imidazol-1-yl)phenyl]methylidene]-6-methylmorpholin-3-one] | 23
COc1cc(/C=C2\OCCN([C@H](c3cc(F)c(F)c(F)c3)[C@@H](C)O)C2=O)ccc1-n1cnc(C)c1 [Example 30, (Z)-4-[(1R,2R)-2-hydroxy-1-(3,4,5-trifluorophenyl)propyl]-2-[1-[3-methoxy-4-(4-methyl-1H-imidazol-1-yl)phenyl]methylidene]morpholin-3-one] | 54
COc1cc(/C=C2\OCCN([C@H](c3ccc(F)c(F)c3)[C@@H](C)O)C2=O)ccc1-n1cnc(C)c1 [Example 31, (Z)-4-[(1R,2R)-1-(3,4-difluorophenyl)-2-hydroxypropyl]-2-[1-[3-methoxy-4-(4-methyl-1H-imidazol-1-yl)phenyl]methylidene]morpholin-3-one] | 31
COc1cc(/C=C2\O[C@@H](C)CN([C@H](c3ccc(F)cc3)[C@@H](C)O)C2=O)ccc1-n1cnc(C)c1 [Example 32, (Z)-(S)-4-[(1R,2R)-1-(4-fluorophenyl)-2-hydroxypropyl]-2-[1-[3-methoxy-4-(4-methyl-1H-imidazol-1-yl)phenyl]methylidene]-6-methylmorpholin-3-one] | 41
COc1cc(/C=C2\OC(C)(C)CN([C@H](c3ccc(F)cc3)[C@@H](C)O)C2=O)ccc1-n1cnc(C)c1 [Example 33, (Z)-4-[(1R,2R)-1-(4-fluorophenyl)-2-hydroxypropyl]-2-[1-[3-methoxy-4-(4-methyl-1H-imidazol-1-yl)phenyl]methylidene]-6,6-dimethylmorpholin-3-one] | 63
COc1cc(/C=C2\O[C@@H](C)CN([C@H](c3ccc(F)c(F)c3)[C@@H](C)O)C2=O)ccc1-n1cnc(C)c1 [Example 34, (Z)-(S)-4-[(1R,2R)-1-(3,4-difluorophenyl)-2-hydroxypropyl]-2-[1-[3-methoxy-4-(4-methyl-1H-imidazol-1-yl)phenyl]methylidene]-6-methylmorpholin-3-one] | 23
COc1cc(/C=C2\OC(C)(C)CN([C@H](c3ccc(F)c(F)c3)[C@@H](C)O)C2=O)ccc1-n1cnc(C)c1 [Example 35, (Z)-4-[(1R,2R)-1-(3,4-difluorophenyl)-2-hydroxypropyl]-2-[1-[3-methoxy-4-(methylimidazol-1-yl)phenyl]methylidene]-6,6-dimethylmorpholin-3-one] | 23
COc1cc(/C=C2\O[C@@H](C)CN([C@](C)(CO)c3cc(F)c(F)c(F)c3)C2=O)ccc1-n1cnc(C)c1 [Example 36, (Z)-(S)-4-[(S)-2-hydroxy-1-methyl-1-(3,4,5-trifluorophenyl)ethyl]-2-[1-[3-methoxy-4-(4-methyl-1H-imidazol-1-yl)phenyl]methylidene]-6-methylmorpholin-3-one] | 109
COc1cc(/C=C2\O[C@@H](C)CN([C@@H](C)c3cc(F)c(F)c(F)c3)C2=O)ccc1-n1cnc(C)c1 [Example 37, (Z)-(6S)-2-[1-[3-methoxy-4-(4-methyl-1H-imidazol-1-yl)phenyl]methylidene]-6-methyl-4-[(S)-1-(3,4,5-trifluorophenyl)ethyl]morpholin-3-one] | 20
COc1cc(/C=C2\O[C@@H](C)CN(C(C)(C)c3ccc(F)cc3)C2=O)ccc1-n1cnc(C)c1 [Example 38, (Z)-(6S)-4-[1-(4-fluorophenyl)-1-methylethyl]-2-[1-[3-methoxy-4-(4-methyl-1H-imidazol-1-yl)phenyl]methylidene]-6-methylmorpholin-3-one] | 52
COc1cc(/C=C2\O[C@@H](C)CN(C3(c4ccc(F)cc4)CC3)C2=O)ccc1-n1cnc(C)c1 [Example 39, (Z)-(6S)-4-[1-(4-fluorophenyl)cyclopropyl]-2-[1-[3-methoxy-4-(4-methyl-1H-imidazol-1-yl)phenyl]methylidene]-6-methylmorpholin-3-one] | 130
COc1cc(/C=C2\OC[C@H]3CCC[C@@H](c4cc(F)c(F)c(F)c4)N3C2=O)ccc1-n1cnc(C)c1 [Example 40] | 100
COc1cc(/C=C2\OC[C@H]3CCC[C@@H](c4ccc(F)c(F)c4)N3C2=O)ccc1-n1cnc(C)c1 [Example 41] | 141
COc1cc(/C=C2\O[C@@H](C)CN([C@@H](C)c3ccnc(Cl)c3)C2=O)ccc1-n1cnc(C)c1 [Example 51, (Z)-(S)-4-[(S)-1-(2-chloropyridin-4-yl)ethyl]-2-[1-[3-methoxy-4-(4-methyl-1H-imidazol-1-yl)phenyl]methylidene]-6-methylmorpholin-3-one] | 67
COc1cc(/C=C2\O[C@@H](C)CN([C@@H](C)c3ccnc(Cl)c3F)C2=O)ccc1-n1cnc(C)c1 [Example 52, (Z)-(S)-4-[(S)-1-(2-chloro-3-fluoropyridin-4-yl)ethyl]-2-[1-[3-methoxy-4-(4-methyl-1H-imidazol-1-yl)phenyl]methylidene]-6-methylmorpholin-3-one] | 86
COc1cc(/C=C2\O[C@@H](C)CN([C@@H](C)c3cc(F)nc(F)c3)C2=O)ccc1-n1cnc(C)c1 [Example 53, (Z)-(S)-4-[(S)-1-(2,6-difluoropyridin-4-yl)ethyl]-2-[1-[3-methoxy-4-(4-methyl-1H-imidazol-1-yl)phenyl]methylidene]-6-methylmorpholin-3-one] | 40
COc1cc(/C=C2\OC(C)(C)CN([C@@H](C)c3ccnc(Cl)c3)C2=O)ccc1-n1cnc(C)c1 [Example 54, (Z)-4-[(S)-1-(2-chloropyridin-4-yl)ethyl]-2-[1-[3-methoxy-4-(4-methyl-1H-imidazol-1-yl)phenyl]methylidene]-6,6-dimethylmorpholin-3-one] | 74
COc1cc(/C=C2\OC(C)(C)CN([C@@H](C)c3ccc(F)nc3F)C2=O)ccc1-n1cnc(C)c1 [Example 55, (Z)-4-[(S)-1-(2,6-difluoropyridin-3-yl)ethyl]-2-[1-[3-methoxy-4-(4-methyl-1H-imidazol-1-yl)phenyl]methylidene]-6,6-dimethylmorpholin-3-one] | 111
